Measurements reported in patent US20130289083A1, “IDO Inhibitors” (priority 2007, published 2013).
Where two headings read alike, the source gives them in different places.

Legend:
human IDO = human IDO (Homo sapiens, UniProt P14902); assay: Cell based IDO/kynurenine assay in IDO-293-T-Rex cells; conditions: kynurenine production, 293T cells expressing human IDO
Procedure, shortened: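 293-T-REx cells stably carrying doxycycline-inducible human or murine IDO were incubated with inhibitors in induction medium for 16 h at 37° C. Medium was TCA-treated at 60° C and reacted with p-dimethylaminobenzaldehyde. Kynurenine was quantified by absorbance at 480 nm.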

IDO-293-T-Rex cells = tested on: IDO-293-T-Rex cells
Experimental: To measure the toxicity of each compound after 16 h incubation with cells, cell viability is measured via a WST-1 assay (Roche) according to instructions from the manufacturer. Briefly, after the incubation with each compound, medium is aspirated and replaced with […] of WST-1 reagent, and incubated 30 min at 37° C. Absorbance at 540 nm is correlated with the number of viable cells. Determination of IC50 (Kynurenine assay) or LD50 (WST-1 assay) is performed via non-linear regression analysis using GraphPad Prism software.
Viability was measure by the WST assay as described in one of the examples.

murine IDO = molecular target: T1, murine IDO (Mus musculus, UniProt P28776); assay: Cell based IDO/kynurenine assay in 293-T-Rex cells expressing murine IDO
T1 construct: expressed in transfected cells; host or cells: 293-T-REx cells (Invitrogen), doxycycline-inducible CMV-tet promoter
Experimental: Transfected cells were selected in DBZ medium (DMEM, 10% FBS, 1× Penicillin+Streptomycin, 2 mM L-glutamine, 5 μg/mL blasticidin and 25 μg/ml Zeocin) at 37° C. with a 5% CO2 in air atmosphere. Individual clones were isolated by limiting dilution cloning from these populations.
The cells incubated in Neutral medium serve as negative control of the assay. The cells incubated in Induction medium and without inhibitor serve as the positive control of the assay. The incubation is carried out for 16 h at 37° C. in a cell culture incubator. 200 μL of medium are transferred to U-bottom polypropylene 96-well plates containing 25 μL of 30% TCA, incubated 30 minutes at 60° C. and centrifuged at 3400 g for 5 minutes. 150 μL of the clear supernatant is transferred to a polystyrene 96-well plate containing 50 μL of 4% (w/v) of p-dimethylaminobenzaldehyde in acetic acid, incubated for 10 min. Kynurenine concentration is determined by measuring the absorbance at 480 nm.

[1] = tested on: 293-T-Rex cells expressing murine IDO; assay: Toxicity / cell viability (LD50) in the murine IDO cell based assay
[2] = molecular target: purified human IDO protein (Homo sapiens, UniProt P14902); assay: Enzymatic IDO assay (kynurenine production, absorbance 480 nm); conditions: recombinant human IDO, enzymatic activity
[3] = Table 16, 50% cell viability loss, WST assay, human IDO cell based assay
[4] = Table 16, cells expressing murine IDO, read-out: mIDO EC50
[5] = Table 16, cell viability loss, murine IDO cell based assay
[6] = Table 15, 50% cell viability loss, WST assay, human IDO cell based assay
[7] = Table 15, cells expressing murine IDO, read-out: mIDO EC50
[8] = Table 15, cell viability loss, murine IDO cell based assay

purified human IDO protein, sequence (P14902 whole entry P110S/E119G): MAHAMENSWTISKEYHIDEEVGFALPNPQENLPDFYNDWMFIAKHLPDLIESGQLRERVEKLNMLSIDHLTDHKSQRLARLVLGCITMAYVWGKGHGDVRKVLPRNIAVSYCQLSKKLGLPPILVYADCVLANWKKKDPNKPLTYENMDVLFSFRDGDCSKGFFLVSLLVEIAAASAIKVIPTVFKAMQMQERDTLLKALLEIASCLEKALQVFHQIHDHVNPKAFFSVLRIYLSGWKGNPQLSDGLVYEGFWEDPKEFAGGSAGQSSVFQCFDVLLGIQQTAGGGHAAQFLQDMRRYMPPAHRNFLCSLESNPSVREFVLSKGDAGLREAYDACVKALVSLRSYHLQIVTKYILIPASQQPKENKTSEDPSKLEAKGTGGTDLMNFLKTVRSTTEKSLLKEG
human IDO, sequence (P14902 whole entry): as the sequence (P14902 whole entry P110S/E119G) above, with S110P, G119E counted along it
T1 sequence (P28776 whole entry): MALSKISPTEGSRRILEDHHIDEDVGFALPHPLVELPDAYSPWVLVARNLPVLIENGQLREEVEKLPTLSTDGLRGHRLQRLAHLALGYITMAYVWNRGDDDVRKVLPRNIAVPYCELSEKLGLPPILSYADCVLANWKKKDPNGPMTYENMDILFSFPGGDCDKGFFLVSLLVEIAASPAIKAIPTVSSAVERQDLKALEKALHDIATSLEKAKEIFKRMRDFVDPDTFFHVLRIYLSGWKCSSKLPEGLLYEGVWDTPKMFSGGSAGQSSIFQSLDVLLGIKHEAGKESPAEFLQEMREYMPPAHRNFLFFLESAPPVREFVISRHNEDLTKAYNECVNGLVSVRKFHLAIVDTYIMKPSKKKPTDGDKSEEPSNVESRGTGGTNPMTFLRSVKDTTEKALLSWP

Row | Structure (SMILES) | EC50 (human IDO; Table 15, read-out: hIDO EC50) [µM] | EC50 (murine IDO; [7]) [µM] | IC50 ([2]; hIDO IC50, Table 15) [µM] | other results
1 | NOCc1cccc(F)c1 [compound 762, O-(3-fluorobenzyl)hydroxylamine] | – | – | – | EC50 (human IDO; Table 16, read-out: hIDO EC50): < 10 µM; hIDO LD50 (IDO-293-T-Rex cells; [3]): D (D>1000 μM); EC50 (murine IDO; [4]): < 10 µM; mIDO LD50 [1, 5]: D (D>1000 μM); IC50 ([2]; hIDO IC50, Table 16): < 10 µM
2 | NOCc1cc([N+](=O)[O-])cc([N+](=O)[O-])c1 [compound 1657, O-(3,5-dinitrobenzyl)hydroxylamine] | – | – | – | EC50 (human IDO; hIDO EC50, Table 16): < 10 µM; hIDO LD50 (IDO-293-T-Rex cells; [3]): D (D>1000 μM); EC50 (murine IDO; mIDO EC50, Table 16, cells expressing murine IDO): < 10 µM; mIDO LD50 [1, 5]: D (D>1000 μM); IC50 ([2]; hIDO IC50, Table 16): < 10 µM
3 | NOCc1cccc(Cl)c1 [compound 1672, O-(3-chlorobenzyl)hydroxylamine] | – | – | – | EC50 (human IDO; Table 16, read-out: hIDO EC50): < 10 µM; hIDO LD50 (IDO-293-T-Rex cells): D (key: A: <10 μM; B: 10-100 μM; C: 100-1000 μM; D>1000 μM); EC50 (murine IDO; [4]): < 10 µM; mIDO LD50 [1]: D (key: A: <10 μM; B: 10-100 μM; C: 100-1000 μM; D>1000 μM); IC50 ([2]; hIDO IC50, Table 16): < 10 µM
4 | NOCc1ccc2ccccc2c1 [compound 1736, O-(naphthalen-2-ylmethyl)hydroxylamine] | < 10 | < 10 | < 10 | hIDO LD50 (IDO-293-T-Rex cells; [6]): D (D>1000 μM); mIDO LD50 [1, 8]: D (D>1000 μM)
5 | NOCc1cccnc1 [compound 1738, O-(pyridin-3-ylmethyl)hydroxylamine] | < 10 | 10 to 100 | 10 to 100 | hIDO LD50 (IDO-293-T-Rex cells; [6]): D (D>1000 μM); mIDO LD50 [1, 8]: D (D>1000 μM)
6 | NOCc1c[nH]c2ccccc12 [compound 1742, O-((1H-indol-3-yl)methyl)hydroxylamine] | < 10 | < 10 | 10 to 100 | hIDO LD50 (IDO-293-T-Rex cells; [6]): D (D>1000 μM); mIDO LD50 [1, 8]: D (D>1000 μM)
7 | NOCc1cc(Cl)cc(Cl)c1 [compound 1769, O-(3,5-dichlorobenzyl)hydroxylamine] | < 10 | < 10 | < 10 | hIDO LD50 (IDO-293-T-Rex cells): D (key: A: <10 μM; B: 10-100 μM; C: 100-1000 μM; D>1000 μM); mIDO LD50 [1]: D (key: A: <10 μM; B: 10-100 μM; C: 100-1000 μM; D>1000 μM)
8 | NOCc1cc(F)cc(F)c1 [compound 1770, O-(3,5-difluorobenzyl)hydroxylamine] | < 10 | – | < 10 | hIDO LD50 (IDO-293-T-Rex cells): D (key: A: <10 μM; B: 10-100 μM; C: 100-1000 μM; D>1000 μM); EC50 (murine IDO; Table 15, printed as a number instead of a range class, read-out: mIDO EC50): 2.3 µM; mIDO LD50 [1]: D (key: A: <10 μM; B: 10-100 μM; C: 100-1000 μM; D>1000 μM)
9 | NOCc1ccccc1I [compound 1817, O-(2-iodobenzyl)hydroxylamine] | – | – | – | EC50 (human IDO; Table 16, read-out: hIDO EC50): < 10 µM; hIDO LD50 (IDO-293-T-Rex cells): D (key: A: <10 μM; B: 10-100 μM; C: 100-1000 μM; D>1000 μM); EC50 (murine IDO; [4]): 10 to 100 µM; mIDO LD50 [1]: D (key: A: <10 μM; B: 10-100 μM; C: 100-1000 μM; D>1000 μM); IC50 ([2]; hIDO IC50, Table 16): < 10 µM
10 | NOCc1ccc(I)cc1 [compound 1818, O-(4-iodobenzyl)hydroxylamine] | – | – | – | EC50 (human IDO; Table 16, read-out: hIDO EC50): < 10 µM; hIDO LD50 (IDO-293-T-Rex cells): D (key: A: <10 μM; B: 10-100 μM; C: 100-1000 μM; D>1000 μM); EC50 (murine IDO; [4]): 10 to 100 µM; mIDO LD50 [1]: D (key: A: <10 μM; B: 10-100 μM; C: 100-1000 μM; D>1000 μM); IC50 ([2]; hIDO IC50, Table 16): < 10 µM
11 | N#Cc1ccc(CON)cc1 [compound 1896, 4-(aminooxymethyl)benzonitrile] | < 10 | 10 to 100 | < 10 | hIDO LD50 (IDO-293-T-Rex cells; [6]): D (D>1000 μM); mIDO LD50 [1, 8]: D (D>1000 μM)
12 | NOCc1cc(Cl)ccc1-c1ccccc1Cl [compound 1915, O-((2′,4-dichlorobiphenyl-2-yl)methyl)hydroxylamine] | 10 to 100 | 100 to 1000 | < 10 | –
13 | NOCc1cc(Cl)ccc1-c1ccccc1 [compound 1916, O-((4-chlorobiphenyl-2-yl)methyl)hydroxylamine] | < 10 | 10 to 100 | < 10 | –
14 | NOCc1cc(Cl)ccc1-c1ccc(C(F)(F)F)cc1 [compound 1917, O-((4-chloro-4′-(trifluoromethyl)biphenyl-2-yl)methyl)hydroxylamine] | < 10 | 10 to 100 | < 10 | –
15 | NOCc1cc(Cl)ccc1-c1cccc(Cl)c1 [compound 1918, O-((3′,4-dichlorobiphenyl-2-yl)methyl)hydroxylamine] | < 10 | 10 to 100 | < 10 | –
16 | NOCc1cc(Cl)ccc1-c1ccc(Cl)c(Cl)c1 [compound 1919, O-((3′,4,4′-trichlorobiphenyl-2-yl)methyl)hydroxylamine] | < 10 | 10 to 100 | < 10 | –
17 | NOC(c1ccccc1)C1CCCCC1 (stereo not shown) [compound 1920, O-(cyclohexyl(phenyl)methyl)hydroxylamine] | < 10 | 10 to 100 | < 10 | –
18 | NOC(Cc1ccccc1)c1ccccc1 (stereo not shown) [compound 1921, O-(1,2-diphenylethyl)hydroxylamine] | < 10 | 10 to 100 | < 10 | –
19 | NOC(c1ccccc1)c1ccccc1 [compound 1922, O-benzhydrylhydroxylamine] | – | – | – | EC50 (human IDO; Table 16, read-out: hIDO EC50): < 10 µM; EC50 (murine IDO; [4]): < 10 µM; IC50 ([2]; hIDO IC50, Table 16): < 10 µM
20 | NOCc1cc(Cl)ccc1-c1cncnc1 [compound 1923, O-(5-chloro-2-(pyrimidin-5-yl)benzyl)hydroxylamine] | < 10 | < 10 | < 10 | –
21 | NOC(CCc1ccccc1)c1ccccc1 (stereo not shown) [compound 1924, O-(1,3-diphenylpropyl)hydroxylamine] | < 10 | 10 to 100 | < 10 | –
22 | NOC(CC1CCCCC1)c1ccccc1 (stereo not shown) [compound 1925, O-(2-cyclohexyl-1-phenylethyl)hydroxylamine] | < 10 | 10 to 100 | 10 to 100 | –
